Here are results for five compounds from article PMC5564600 (Oncotarget, 2017).

Holding throughout (experiment): biochemical
Format in all cases: binding

The target in assay [1] is T1, panel of 442 kinases (Homo sapiens, UniProt P07333).
T1 construct: purchased Ambit Biosciences (scanMAXX KINOMEscan)
The conditions noted are these: CSF1R; for remaining activity at 1 µM: read-out: % of control at 1 µM.

Assay [2] concerns the target T2, panel of 442 kinases (Plasmodium falciparum, UniProt P61075).
T2 construct: purchased Ambit Biosciences (scanMAXX KINOMEscan)
As to conditions: kinase PFPK5(P.falciparum); for remaining activity at 1 µM: read-out: % of control at 1 µM; for remaining activity at 10 µM: read-out: % of control at 10 µM.

The target of assay [3] is T3, panel of 442 kinases (Homo sapiens, UniProt Q9UPE1).
T3 construct: purchased Ambit Biosciences (scanMAXX KINOMEscan)
The conditions noted are these: kinase SRPK3; for remaining activity at 1 µM: read-out: SRPK3 (% of control at 1 µM).

In assay [4] the target is T4, panel of 442 kinases (Homo sapiens, UniProt P78362).
T4 construct: purchased Ambit Biosciences (scanMAXX KINOMEscan)
The conditions noted are these: kinase SRPK2; for remaining activity at 1 µM: read-out: SRPK2 (% of control at 1 µM).

Assay [5] addresses T5, panel of 442 kinases (Homo sapiens, UniProt P06213).
T5 construct: purchased Ambit Biosciences (scanMAXX KINOMEscan)
The conditions noted are these: kinase INSR; for remaining activity at 1 µM: read-out: % of control at 1 µM.

Assay [6] addresses T6, panel of 442 kinases (Homo sapiens, UniProt Q8IY84).
T6 construct: purchased Ambit Biosciences (scanMAXX KINOMEscan)
The conditions noted are these: kinase NIM1; for remaining activity at 1 µM: read-out: % of control at 1 µM.

Assay [7] deals with T7, panel of 442 kinases (Homo sapiens, UniProt P11362).
T7 construct: purchased Ambit Biosciences (scanMAXX KINOMEscan)
As to conditions: FGFR1; for remaining activity at 1 µM: read-out: % of control at 1 µM.

Assay [8] has as its target T8, panel of 442 kinases (Homo sapiens, UniProt P57058).
T8 construct: purchased Ambit Biosciences (scanMAXX KINOMEscan)
T8 sequence (P57058 1-714): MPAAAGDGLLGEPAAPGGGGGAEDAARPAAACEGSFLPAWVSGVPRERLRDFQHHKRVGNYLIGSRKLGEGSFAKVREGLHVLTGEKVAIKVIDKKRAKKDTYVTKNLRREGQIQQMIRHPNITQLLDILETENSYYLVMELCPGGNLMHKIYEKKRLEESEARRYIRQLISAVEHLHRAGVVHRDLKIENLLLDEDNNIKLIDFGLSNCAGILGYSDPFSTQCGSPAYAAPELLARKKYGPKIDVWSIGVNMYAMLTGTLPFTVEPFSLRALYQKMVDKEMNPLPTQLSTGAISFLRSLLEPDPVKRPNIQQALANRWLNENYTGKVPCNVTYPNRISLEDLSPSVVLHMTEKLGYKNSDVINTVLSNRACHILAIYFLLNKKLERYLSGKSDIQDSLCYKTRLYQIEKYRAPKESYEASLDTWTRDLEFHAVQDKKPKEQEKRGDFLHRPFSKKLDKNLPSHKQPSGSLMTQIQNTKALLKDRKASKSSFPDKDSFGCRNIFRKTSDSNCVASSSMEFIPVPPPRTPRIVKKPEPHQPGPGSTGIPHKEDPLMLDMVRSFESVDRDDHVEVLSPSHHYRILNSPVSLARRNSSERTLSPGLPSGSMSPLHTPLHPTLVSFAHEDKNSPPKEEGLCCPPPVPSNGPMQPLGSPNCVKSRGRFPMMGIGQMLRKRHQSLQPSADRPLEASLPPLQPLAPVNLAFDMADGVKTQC
As to conditions: kinase HUNK; for remaining activity at 1 µM: read-out: % of control at 1 µM.

The target in assay [9] is T9, panel of 442 kinases (Homo sapiens, UniProt Q6ZN16).
T9 construct: purchased Ambit Biosciences (scanMAXX KINOMEscan)
T9 sequence (Q6ZN16 1-1313): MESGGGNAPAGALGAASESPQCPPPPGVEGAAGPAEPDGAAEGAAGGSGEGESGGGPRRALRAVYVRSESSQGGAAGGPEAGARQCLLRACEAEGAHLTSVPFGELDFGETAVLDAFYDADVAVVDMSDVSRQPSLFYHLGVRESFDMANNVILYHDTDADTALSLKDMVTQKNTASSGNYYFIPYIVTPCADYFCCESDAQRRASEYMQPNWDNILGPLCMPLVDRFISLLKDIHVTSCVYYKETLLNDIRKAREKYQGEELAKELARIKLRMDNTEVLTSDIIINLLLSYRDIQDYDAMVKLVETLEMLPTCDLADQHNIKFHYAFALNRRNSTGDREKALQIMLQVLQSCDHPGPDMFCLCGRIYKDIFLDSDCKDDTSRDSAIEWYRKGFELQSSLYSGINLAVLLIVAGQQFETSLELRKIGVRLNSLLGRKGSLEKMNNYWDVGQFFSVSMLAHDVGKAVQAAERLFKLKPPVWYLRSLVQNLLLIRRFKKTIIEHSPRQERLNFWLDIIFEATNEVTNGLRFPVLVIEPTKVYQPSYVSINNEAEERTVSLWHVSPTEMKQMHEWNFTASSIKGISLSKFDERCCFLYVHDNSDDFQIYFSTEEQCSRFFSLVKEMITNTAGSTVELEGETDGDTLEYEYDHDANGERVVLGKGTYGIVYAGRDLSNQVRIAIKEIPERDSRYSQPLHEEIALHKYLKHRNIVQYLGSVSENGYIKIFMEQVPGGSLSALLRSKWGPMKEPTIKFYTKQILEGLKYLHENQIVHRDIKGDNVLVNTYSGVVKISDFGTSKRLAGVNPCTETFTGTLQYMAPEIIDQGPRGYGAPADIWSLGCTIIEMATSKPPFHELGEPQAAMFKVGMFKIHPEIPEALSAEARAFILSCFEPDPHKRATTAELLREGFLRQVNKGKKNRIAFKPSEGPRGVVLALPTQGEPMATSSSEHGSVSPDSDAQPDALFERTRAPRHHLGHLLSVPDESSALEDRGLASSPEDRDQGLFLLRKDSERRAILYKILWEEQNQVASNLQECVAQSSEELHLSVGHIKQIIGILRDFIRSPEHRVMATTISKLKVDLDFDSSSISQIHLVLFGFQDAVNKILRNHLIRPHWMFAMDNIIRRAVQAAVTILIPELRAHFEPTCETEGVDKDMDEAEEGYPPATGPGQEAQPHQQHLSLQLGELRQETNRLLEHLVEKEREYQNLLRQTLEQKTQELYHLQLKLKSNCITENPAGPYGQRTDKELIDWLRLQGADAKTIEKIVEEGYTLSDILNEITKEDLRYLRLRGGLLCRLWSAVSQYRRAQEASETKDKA
The conditions noted are these: kinase MAP3K15; for remaining activity at 1 µM: read-out: % of control at 1 µM.

Setting [10] is: 10 µM, read-out: % of control at 10 µM.

T6 sequence (Q8IY84 whole entry): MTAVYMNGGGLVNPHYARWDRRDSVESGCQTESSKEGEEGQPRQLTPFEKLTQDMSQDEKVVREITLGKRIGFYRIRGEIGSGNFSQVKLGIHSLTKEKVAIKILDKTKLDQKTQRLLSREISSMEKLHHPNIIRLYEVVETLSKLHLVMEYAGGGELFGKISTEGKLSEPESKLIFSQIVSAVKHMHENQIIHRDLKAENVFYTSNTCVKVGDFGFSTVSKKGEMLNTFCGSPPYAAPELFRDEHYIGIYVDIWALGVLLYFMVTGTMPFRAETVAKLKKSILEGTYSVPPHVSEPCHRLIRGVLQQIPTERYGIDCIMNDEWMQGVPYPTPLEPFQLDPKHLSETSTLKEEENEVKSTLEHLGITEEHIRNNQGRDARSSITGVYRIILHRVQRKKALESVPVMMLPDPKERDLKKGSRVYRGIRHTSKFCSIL
T3 sequence (Q9UPE1 whole entry): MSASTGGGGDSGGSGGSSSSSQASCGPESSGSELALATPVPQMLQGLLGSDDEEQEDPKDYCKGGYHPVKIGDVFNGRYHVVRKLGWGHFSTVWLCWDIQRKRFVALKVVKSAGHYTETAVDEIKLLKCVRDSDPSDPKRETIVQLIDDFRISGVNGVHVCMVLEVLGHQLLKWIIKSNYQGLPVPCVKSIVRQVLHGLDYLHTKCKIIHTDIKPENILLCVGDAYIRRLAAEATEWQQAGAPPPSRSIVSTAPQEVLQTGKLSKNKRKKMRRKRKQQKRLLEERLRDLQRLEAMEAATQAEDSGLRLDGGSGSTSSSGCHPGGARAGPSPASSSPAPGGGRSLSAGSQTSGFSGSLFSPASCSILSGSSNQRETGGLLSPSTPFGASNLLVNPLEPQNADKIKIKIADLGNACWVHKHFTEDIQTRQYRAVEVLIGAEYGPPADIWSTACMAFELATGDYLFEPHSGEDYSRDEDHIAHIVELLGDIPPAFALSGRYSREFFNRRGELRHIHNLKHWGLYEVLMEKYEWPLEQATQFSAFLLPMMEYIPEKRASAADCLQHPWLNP
T5 sequence (P06213 28-1382): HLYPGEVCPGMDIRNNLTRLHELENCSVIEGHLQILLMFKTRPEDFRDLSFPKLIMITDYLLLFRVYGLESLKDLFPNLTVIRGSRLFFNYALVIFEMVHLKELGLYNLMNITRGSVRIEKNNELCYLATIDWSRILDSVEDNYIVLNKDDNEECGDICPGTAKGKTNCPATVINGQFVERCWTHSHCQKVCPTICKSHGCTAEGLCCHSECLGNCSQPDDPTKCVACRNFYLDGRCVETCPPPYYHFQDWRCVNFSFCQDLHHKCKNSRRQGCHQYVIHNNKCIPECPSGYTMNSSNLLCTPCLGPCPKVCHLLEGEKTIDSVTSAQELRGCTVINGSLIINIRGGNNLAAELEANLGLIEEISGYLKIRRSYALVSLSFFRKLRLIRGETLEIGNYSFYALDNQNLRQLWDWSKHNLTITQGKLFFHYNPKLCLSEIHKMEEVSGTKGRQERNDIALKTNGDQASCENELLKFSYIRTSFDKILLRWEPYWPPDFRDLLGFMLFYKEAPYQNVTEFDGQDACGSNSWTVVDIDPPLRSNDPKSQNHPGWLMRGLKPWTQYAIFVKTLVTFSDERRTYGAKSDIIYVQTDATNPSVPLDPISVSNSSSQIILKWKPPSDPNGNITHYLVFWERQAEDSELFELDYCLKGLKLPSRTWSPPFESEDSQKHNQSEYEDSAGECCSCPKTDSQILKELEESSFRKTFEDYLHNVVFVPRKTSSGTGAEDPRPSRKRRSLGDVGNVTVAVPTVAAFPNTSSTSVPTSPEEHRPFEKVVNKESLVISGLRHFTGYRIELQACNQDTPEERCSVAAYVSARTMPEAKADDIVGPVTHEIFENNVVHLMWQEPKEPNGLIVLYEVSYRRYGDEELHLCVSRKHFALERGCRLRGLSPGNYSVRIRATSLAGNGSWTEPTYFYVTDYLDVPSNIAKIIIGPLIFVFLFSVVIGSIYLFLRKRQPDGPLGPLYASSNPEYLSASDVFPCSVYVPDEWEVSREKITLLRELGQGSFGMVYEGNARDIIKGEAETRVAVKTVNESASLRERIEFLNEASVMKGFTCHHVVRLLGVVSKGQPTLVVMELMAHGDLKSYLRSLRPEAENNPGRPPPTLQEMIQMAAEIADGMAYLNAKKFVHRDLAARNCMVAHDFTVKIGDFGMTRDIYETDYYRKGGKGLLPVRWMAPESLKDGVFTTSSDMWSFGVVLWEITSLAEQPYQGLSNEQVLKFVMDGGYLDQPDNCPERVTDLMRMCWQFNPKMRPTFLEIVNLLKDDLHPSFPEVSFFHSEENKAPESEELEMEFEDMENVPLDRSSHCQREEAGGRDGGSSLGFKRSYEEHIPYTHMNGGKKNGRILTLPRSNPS
T4 sequence (P78362 whole entry): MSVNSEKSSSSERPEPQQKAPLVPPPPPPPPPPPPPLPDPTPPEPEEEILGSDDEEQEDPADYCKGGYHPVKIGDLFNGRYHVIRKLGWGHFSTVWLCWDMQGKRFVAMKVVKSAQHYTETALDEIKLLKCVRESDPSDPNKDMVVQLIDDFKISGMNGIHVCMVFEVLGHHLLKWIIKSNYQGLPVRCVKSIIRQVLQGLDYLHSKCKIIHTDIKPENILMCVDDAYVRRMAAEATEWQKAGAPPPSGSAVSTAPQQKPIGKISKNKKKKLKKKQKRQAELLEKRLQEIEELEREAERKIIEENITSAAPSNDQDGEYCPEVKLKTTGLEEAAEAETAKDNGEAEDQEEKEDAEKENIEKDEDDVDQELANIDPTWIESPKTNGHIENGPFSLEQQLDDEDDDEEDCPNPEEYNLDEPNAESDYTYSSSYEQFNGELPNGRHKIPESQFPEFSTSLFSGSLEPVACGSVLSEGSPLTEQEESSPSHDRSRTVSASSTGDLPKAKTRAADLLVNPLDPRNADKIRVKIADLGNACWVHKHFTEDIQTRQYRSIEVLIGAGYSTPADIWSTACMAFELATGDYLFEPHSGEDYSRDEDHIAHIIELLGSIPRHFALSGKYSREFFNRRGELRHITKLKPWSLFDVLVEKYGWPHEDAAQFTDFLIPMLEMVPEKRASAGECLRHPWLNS
T1 sequence (P07333 20-972): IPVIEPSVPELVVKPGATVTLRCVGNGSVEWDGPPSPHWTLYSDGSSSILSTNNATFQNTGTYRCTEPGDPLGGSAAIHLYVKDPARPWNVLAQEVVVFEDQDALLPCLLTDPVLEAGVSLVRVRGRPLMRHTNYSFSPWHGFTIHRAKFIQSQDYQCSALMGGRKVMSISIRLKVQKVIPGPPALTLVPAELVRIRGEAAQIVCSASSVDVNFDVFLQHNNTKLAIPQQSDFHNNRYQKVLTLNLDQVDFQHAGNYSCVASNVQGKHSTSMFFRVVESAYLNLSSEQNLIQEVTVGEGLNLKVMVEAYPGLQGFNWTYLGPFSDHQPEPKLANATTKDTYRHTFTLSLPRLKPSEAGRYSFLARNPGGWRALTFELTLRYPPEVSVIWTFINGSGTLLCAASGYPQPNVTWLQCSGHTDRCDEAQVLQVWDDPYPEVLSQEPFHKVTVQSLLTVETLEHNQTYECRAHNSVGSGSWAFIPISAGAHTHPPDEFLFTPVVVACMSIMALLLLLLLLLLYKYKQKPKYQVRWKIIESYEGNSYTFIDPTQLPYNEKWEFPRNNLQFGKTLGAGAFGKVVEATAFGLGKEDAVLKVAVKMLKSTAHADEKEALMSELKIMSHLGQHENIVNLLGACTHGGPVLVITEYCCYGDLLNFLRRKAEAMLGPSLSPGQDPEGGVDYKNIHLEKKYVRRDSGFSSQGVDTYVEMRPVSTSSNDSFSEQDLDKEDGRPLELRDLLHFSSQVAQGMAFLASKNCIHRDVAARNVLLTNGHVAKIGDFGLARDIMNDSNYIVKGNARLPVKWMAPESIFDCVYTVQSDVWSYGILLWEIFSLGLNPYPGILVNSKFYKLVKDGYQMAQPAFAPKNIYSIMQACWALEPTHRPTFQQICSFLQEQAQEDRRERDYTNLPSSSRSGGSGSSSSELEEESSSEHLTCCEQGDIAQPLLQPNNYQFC
T2 sequence (P61075 whole entry): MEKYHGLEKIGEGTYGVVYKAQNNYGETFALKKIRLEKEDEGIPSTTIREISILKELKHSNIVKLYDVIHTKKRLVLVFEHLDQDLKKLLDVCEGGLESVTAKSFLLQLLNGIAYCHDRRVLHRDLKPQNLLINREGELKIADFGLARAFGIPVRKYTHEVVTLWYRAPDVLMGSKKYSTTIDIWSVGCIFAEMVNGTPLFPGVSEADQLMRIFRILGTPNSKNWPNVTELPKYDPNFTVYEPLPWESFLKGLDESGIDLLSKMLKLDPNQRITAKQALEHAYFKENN

With `Nc1cc(C(F)(F)F)c(-c2cc(N3CCOCC3)nc(N3CCOCC3)n2)cn1` [Buparlisib], the remaining activity at 1 µM at panel of 442 kinases [1] stood at 85%; at panel of 442 kinases [2], 100%; at panel of 442 kinases [3], 100%; on panel of 442 kinases [4] it was 78%; on panel of 442 kinases [5], 91%; at panel of 442 kinases [6], 89%. Also, the remaining activity at 1 µM on panel of 442 kinases [7] is 100%; at panel of 442 kinases [8], 100%; on panel of 442 kinases [9], 97%. Besides, the remaining activity at 10 µM is 40% on panel of 442 kinases [1] (setting [10]); 100% at panel of 442 kinases [2]; 100% at panel of 442 kinases [3] (10 µM, read-out: SRPK3 (% of control at 10 µM)); 100% on panel of 442 kinases [4] (10 µM, read-out: SRPK2 (% of control at 10 µM)); 77% at panel of 442 kinases [5] (setting [10]); 86% on panel of 442 kinases [6] (setting [10]). The remaining activity at 10 µM at panel of 442 kinases [7] (setting [10]), on panel of 442 kinases [8] (setting [10]) and at panel of 442 kinases [9] (setting [10]) was 100% each time.
Take `Cn1c(=O)n(-c2ccc(C(C)(C)C#N)cc2)c2c3cc(-c4cnc5ccccc5c4)ccc3ncc21` [Dactolisib, 2-methyl-2-[4-(3-methyl-2-oxo-8-quinolin-3-yl-2,3-dihydroimidazo[4,5-c]quinolin-1-yl)-phenyl] propionitrile]: the remaining activity at 1 µM is 100% at panel of 442 kinases [2]; 91% on panel of 442 kinases [3]; 100% on panel of 442 kinases [4]; 74% on panel of 442 kinases [5]; 100% at panel of 442 kinases [6]; 94% on panel of 442 kinases [7]. Moreover, the results for the remaining activity at 1 µM on panel of 442 kinases [8] and at panel of 442 kinases [9] were 93% and 100%, respectively.
On to `COc1ncc(-c2ccc3nccc(-c4ccnnc4)c3c2)cc1NS(=O)(=O)c1ccc(F)cc1F` [Omipalisib], for which the remaining activity at 1 µM worked out at 100% at panel of 442 kinases [1]; 100% at panel of 442 kinases [2]; 100% on panel of 442 kinases [3]; 100% at panel of 442 kinases [4]; 92% on panel of 442 kinases [5]; 100% on panel of 442 kinases [6]. Further, the remaining activity at 1 µM at panel of 442 kinases [7] amounted to 94%; at panel of 442 kinases [8] it was 74%; on panel of 442 kinases [9] it was 90%.
As to `CS(=O)(=O)N1CCN(Cc2cc3nc(-c4cccc5[nH]ncc45)nc(N4CCOCC4)c3s2)CC1` [Pictilisib, 2-(1H-indazol-4-yl)-6-(4-methanesulfonyl-piperazin-1-ylmethyl)-4-morpholin-4-yl-t hieno[3,2-d]pyrimidine], at panel of 442 kinases [2], the remaining activity at 1 µM is 92% and the remaining activity at 10 µM came to 100%.
As for `FC(F)c1nc2ccccc2n1-c1nc(N2CCOCC2)nc(N2CCOCC2)n1` [ZSTK474, 2-(difluoromethyl)-1-[4,6-di(4-morpholinyl)-1,3,5-triazin-2-yl]-1H-benzimidazole], the remaining activity at 1 µM on panel of 442 kinases [1] was 90%; at panel of 442 kinases [2] it was 100%; on panel of 442 kinases [3] it was 100%; at panel of 442 kinases [4] it was 100%; at panel of 442 kinases [5], 94%; at panel of 442 kinases [6], 100%. The remaining activity at 1 µM on panel of 442 kinases [7], at panel of 442 kinases [8] and on panel of 442 kinases [9] was 100% each time.
